One assay deals with Enteropeptidase (Homo sapiens, UniProt P98073). The assay can be described thus: Inhibition Assay: Using a 96 well plate (#3915, Costar), a test compound (25 μL), 400 mM Tris-HCl buffer (pH 8.0, 25 μL) and 0.5 mg/mL fluorescence enzyme substrate (Gly-Asp-Asp-Asp-Asp-Lys-β-Naphtylamide, 25 μL) were mixed, and recombinant human enteropeptidase (R&D Systems, Inc., 25 μL) was added. Using a fluorescence plate reader fmax (Molecular Devices, Inc.), the reaction rate was measured from the time-course changes at excitation wavelength 320 nm and fluorescence wavelength 405 nm.

The next assay deals with Serine protease 1 (Homo sapiens, UniProt P07477). The assay can be described thus: Inhibition Assay: Using a 96 well plate (#3915, Costar), a test compound (25 μL) was mixed with 20 μM fluorescence enzyme substrate (Boc-Phe-Ser-Arg-AMC, 50 μL) mixed with 200 mM Tris-HCl buffer (pH 8.0), and human trypsin (Sigma, 25 μL) was added. Using a fluorescence plate reader fmax (Molecular Devices, Inc.), the reaction rate was measured from the time-course changes at excitation wavelength 355 nm and fluorescence wavelength 460 nm.
Chain of Serine protease 1 (P07477 whole entry): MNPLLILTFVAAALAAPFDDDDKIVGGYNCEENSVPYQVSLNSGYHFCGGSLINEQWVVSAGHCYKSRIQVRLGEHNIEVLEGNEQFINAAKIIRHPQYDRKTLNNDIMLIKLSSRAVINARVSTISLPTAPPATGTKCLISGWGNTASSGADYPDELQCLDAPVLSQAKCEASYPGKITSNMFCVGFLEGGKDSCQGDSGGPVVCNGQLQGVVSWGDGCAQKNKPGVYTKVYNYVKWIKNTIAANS

Chain of Enteropeptidase (P98073 2-784 limits assumed): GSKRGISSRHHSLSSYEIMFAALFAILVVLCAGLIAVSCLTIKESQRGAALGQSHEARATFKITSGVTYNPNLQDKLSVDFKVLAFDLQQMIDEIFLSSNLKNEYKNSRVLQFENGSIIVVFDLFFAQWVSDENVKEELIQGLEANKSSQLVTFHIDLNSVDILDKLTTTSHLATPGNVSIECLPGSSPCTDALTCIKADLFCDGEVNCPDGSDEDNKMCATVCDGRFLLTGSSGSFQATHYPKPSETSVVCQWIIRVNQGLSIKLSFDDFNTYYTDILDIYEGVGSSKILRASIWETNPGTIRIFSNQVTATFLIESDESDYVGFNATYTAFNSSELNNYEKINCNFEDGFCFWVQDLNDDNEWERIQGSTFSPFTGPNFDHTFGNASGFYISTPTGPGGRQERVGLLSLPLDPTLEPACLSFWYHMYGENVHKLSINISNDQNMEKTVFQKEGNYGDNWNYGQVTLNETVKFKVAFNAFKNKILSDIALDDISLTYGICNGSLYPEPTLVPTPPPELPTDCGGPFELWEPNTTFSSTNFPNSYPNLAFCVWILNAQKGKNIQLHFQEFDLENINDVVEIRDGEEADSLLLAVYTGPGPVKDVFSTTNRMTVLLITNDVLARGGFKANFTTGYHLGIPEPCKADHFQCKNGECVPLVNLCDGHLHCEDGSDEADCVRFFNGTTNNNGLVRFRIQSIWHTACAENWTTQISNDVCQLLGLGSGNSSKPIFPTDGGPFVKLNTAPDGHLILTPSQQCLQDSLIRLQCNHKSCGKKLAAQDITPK
Chain of Enteropeptidase (P98073 785-1019 limits assumed): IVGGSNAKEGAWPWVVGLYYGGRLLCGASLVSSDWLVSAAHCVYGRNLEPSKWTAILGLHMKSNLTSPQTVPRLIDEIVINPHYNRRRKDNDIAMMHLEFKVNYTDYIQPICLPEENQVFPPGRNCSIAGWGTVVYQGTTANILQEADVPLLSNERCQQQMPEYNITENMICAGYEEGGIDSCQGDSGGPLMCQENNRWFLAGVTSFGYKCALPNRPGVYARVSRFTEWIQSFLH

One may read the Ki as a dissociation constant, usually derived from enzyme kinetics or from competition with a known ligand. As to `CCC(CC)(Cc1ccc(C(=O)Oc2ccc(C(=N)N)cc2F)s1)C(=O)N[C@@H](CCC(=O)O)C(=O)O`, the Ki turned out to be 0.27 nM on Enteropeptidase and 2.01 nM on Serine protease 1.
